Assay results from US20250250282A1, “NOVEL SEVEN-MEMBERED RING-FUSED COMPOUNDS” (PRISM Biolab Co., Ltd., priority 2022, published 2025).

system: CellSensor T-REx NICD CSL-bla HeLa cell line (Notch response element driving beta-lactamase reporter); assay: Notch assay (CSL-bla beta-lactamase reporter, DOX-inducible NICD); type: cell-based; conditions: Homo sapiens; 10 μM compound; HeLa/T-REx NICD CSL-bla cells, doxycycline-induced, 16-20 hours incubation; blue/green emission ratio
Method: We used the CellSensor T-REx™ NICD CSL-bla HeLa cell line, which was engineered by lentiviral transduction of HeLa cells with a Notch response element driving beta-lactamase reporter gene expression (CSL-bla) along with DOX (doxycycline)-inducible NICD (Notch intracellular domain) constructs. Addition of DOX to these cells allows for regulated NICD transcription factor expression and subsequent beta-lactamase expression.
Specifically, the following protocol was used.
• 1. Plate Cells: 32 μL/well of HeLa/T-REx™ NICD CSL-bla cells at 10^3 cells/well complete medium into 384-well plate. • 2. Prepare 10× compounds in assay medium. • 3. Add 4 μL compounds or 1% DMSO in assay medium to the cells. • 4. Add 4 μL 10× Doxycycline in Assay Medium to the treated wells, and 4 μL Assay Medium to the Untreated and cell free control wells. • 5. Incubate the assay plate in a humidified 37° C./5% CO2 incubator for 16-20 hours. • 6. Preparation of 6× LiveBLAzer™-FRET B/G Substrate (CCF4-AM) Mixture according to the manual and cell loading should be done in the absence of direct strong lighting. • 7. Remove assay plate from the humidified 37° C./5% CO2 incubator. Add 8 μl of 6× Substrate Mixture from […] to each well. Cover the plate to protect it from light and evaporation. Incubate at room temperature for 4 hours. • 8. Reading an Assay Plate using the following filter selections:
• 9. Data analysis: Use the assay plate layout to identify the location of the Cell-free wells. These control wells are used for background subtraction. Determine the average emission from the Cell-free wells at both 460 nm (Average Blue Background) and 530 nm (Average Green Background). Subtract the Average Blue Background (data collected at 460 nm) from all of the blue emission data. Subtract the Average Green background (data collected at 530 nm) from all of the green emission data. Calculate the Blue/Green Emission Ratio for each well, by dividing the background-subtracted blue emission values by the background-subtracted green emission values.

Structure (SMILES)	inhibition at 10 µM
CC(C)[C@@H]1CN2C(=O)CCN(C(=O)NCc3ccccc3)C2CN(Cc2ccc3ccccc3c2)C1=O (stereo partly drawn) [ID-01, (7R)—N-benzyl-7-isopropyl-9-(naphthalen-2-ylmethyl)-4,8-dioxooctahydropyrimido[1,2-a][1,4]diazepine-1(2H)-carboxamide]	54.7%
O=C1[C@H](Cc2ccc(O)cc2)CN2C(=O)c3sccc3N(C(=O)NCCc3ccccc3)C2CN1Cc1cccc2ccccc12 (stereo partly drawn) [ID-22, (8R)-8-(4-hydroxybenzyl)-6-(naphthalen-1-ylmethyl)-7,11-dioxo-N-phenethyl-4a,5,6,7,8,9-hexahydrothieno[3′,2′:4,5]pyrimido[1,2-a][1,4]diazepine-4(11H)-carboxamide]	56.2%
CC(C)[C@@H]1CN2C(=O)c3sccc3N(C(=O)NCc3cccs3)C2CN(Cc2ccc3ccccc3c2)C1=O (stereo partly drawn) [ID-35, (8R)-8-isopropyl-6-(naphthalen-2-ylmethyl)-7,11-dioxo-N-(thiophen-2-ylmethyl)-4a,5,6,7,8,9-hexahydrothieno[3′,2′:4,5]pyrimido[1,2-a][1,4]diazepine-4(11H)-carboxamide]	54.9%
CCCCN1CC2N(C[C@@H](Cc3ccc(O)cc3)C1=O)C(=O)c1sccc1N2C(=O)NCc1ccc2c(c1)OCO2 (stereo partly drawn) [ID-32, (8R)—N-(benzo[d][1,3]dioxol-5-ylmethyl)-6-butyl-8-(4-hydroxybenzyl)-7,11-dioxo-4a,5,6,7,8,9-hexahydrothieno[3′,2′:4,5]pyrimido[1,2-a][1,4]diazepine-4(11H)-carboxamide]	52.5%
CCCCN1CC2N(C[C@@H](Cc3ccccc3)C1=O)C(=O)CCN2C(=O)NCCC(c1ccccc1)c1ccccc1 (stereo partly drawn) [ID-04, (7R)-7-benzyl-9-butyl-N-(3,3-diphenylpropyl)-4,8-dioxooctahydropyrimido[1,2-a][1,4]diazepine-1(2H)-carboxamide]	54.7%
O=C1[C@H](Cc2ccccc2)CN2C(=O)CCN(C(=O)NCCC(c3ccccc3)c3ccccc3)C2CN1Cc1ccccc1 (stereo partly drawn) [ID-08, (7R)-7,9-dibenzyl-N-(3,3-diphenylpropyl)-4,8-dioxooctahydropyrimido[1,2-a][1,4]diazepine-1(2H)-carboxamide]	64.9%
CC(C)CCN1CC2N(C[C@@H](Cc3ccc(O)cc3)C1=O)C(=O)CCN2C(=O)NCCC(c1ccccc1)c1ccccc1 (stereo partly drawn) [ID-05, (7R)—N-(3,3-diphenylpropyl)-7-(4-hydroxybenzyl)-9-isopentyl-4,8-dioxooctahydropyrimido[1,2-a][1,4]diazepine-1(2H)-carboxamide]	51.5%
CC(C)CCN1CC2N(C[C@@H](Cc3ccc(O)cc3)C1=O)C(=O)c1sccc1N2C(=O)NCc1ccc2c(c1)OCO2 (stereo partly drawn) [ID-33, (8R)—N-(benzo[d][1,3]dioxol-5-ylmethyl)-8-(4-hydroxybenzyl)-6-isopentyl-7,11-dioxo-4a,5,6,7,8,9-hexahydrothieno[3′,2′:4,5]pyrimido[1,2-a][1,4]diazepine-4(11H)-carboxamide]	68.2%
CC(C)[C@@H]1CN2C(=O)CCN(C(=O)NCCC(c3ccccc3)c3ccccc3)C2CN(Cc2ccc3ccccc3c2)C1=O (stereo partly drawn) [ID-14, (7R)—N-(3,3-diphenylpropyl)-7-isopropyl-9-(naphthalen-2-ylmethyl)-4,8-dioxooctahydropyrimido[1,2-a][1,4]diazepine-1(2H)-carboxamide]	62.4%
CC(C)[C@@H]1CN2C(=O)CCN(C(=O)NCCC(c3ccccc3)c3ccccc3)C2CN(CCc2ccccc2)C1=O (stereo partly drawn) [ID-09, (7R)—N-(3,3-diphenylpropyl)-7-isopropyl-4,8-dioxo-9-phenethyloctahydropyrimido[1,2-a][1,4]diazepine-1(2H)-carboxamide]	54.1%
O=C1[C@H](Cc2ccc(O)cc2)CN2C(=O)CCN(C(=O)NCC3CCCCC3)C2CN1Cc1cccc2ccccc12 (stereo partly drawn) [ID-15, (7R)—N-(cyclohexylmethyl)-7-(4-hydroxybenzyl)-9-(naphthalen-1-ylmethyl)-4,8-dioxooctahydropyrimido[1,2-a][1,4]diazepine-1(2H)-carboxamide]	57.5%
O=C1[C@H](Cc2ccc(O)cc2)CN2C(=O)CCN(C(=O)NCCC(c3ccccc3)c3ccccc3)C2CN1Cc1cccc2cccnc12 (stereo partly drawn) [ID-13, (7R)—N-(3,3-diphenylpropyl)-7-(4-hydroxybenzyl)-4,8-dioxo-9-(quinolin-8-ylmethyl)octahydropyrimido[1,2-a][1,4]diazepine-1(2H)-carboxamide]	53.7%
CCCCN1CC2N(C[C@@H](Cc3ccc(O)cc3)C1=O)C(=O)c1sccc1N2C(=O)NCc1ccc(C)cc1 (stereo partly drawn) [ID-36, (8R)-6-butyl-8-(4-hydroxybenzyl)-N-(4-methylbenzyl)-7,11-dioxo-4a,5,6,7,8,9-hexahydrothieno[3′,2′:4,5]pyrimido[1,2-a][1,4]diazepine-4(11H)-carboxamide]	55.9%
Cc1ccc(CNC(=O)N2c3ccsc3C(=O)N3C[C@@H](Cc4ccc(O)cc4)C(=O)N(CCC(C)C)CC32)cc1 (stereo partly drawn) [ID-37, (8R)-8-(4-hydroxybenzyl)-6-isopentyl-N-(4-methylbenzyl)-7,11-dioxo-4a,5,6,7,8,9-hexahydrothieno[3′,2′:4,5]pyrimido[1,2-a][1,4]diazepine-4(11H)-carboxamide]	66.3%
O=C1[C@H](Cc2ccccc2)CN2C(=O)CCN(C(=O)NCC3CCCCC3)C2CN1Cc1cccc2ccccc12 (stereo partly drawn) [ID-16, (7R)-7-benzyl-N-(cyclohexylmethyl)-9-(naphthalen-1-ylmethyl)-4,8-dioxooctahydropyrimido[1,2-a][1,4]diazepine-1(2H)-carboxamide]	60.2%
CCCCN1CC2N(C[C@@H](CC(C)C)C1=O)C(=O)c1sccc1N2C(=O)NCc1cccc2ccccc12 (stereo partly drawn) [ID-24, (8R)-6-butyl-8-isobutyl-N-(naphthalen-1-ylmethyl)-7,11-dioxo-4a,5,6,7,8,9-hexahydrothieno[3′,2′:4,5]pyrimido[1,2-a][1,4]diazepine-4(11H)-carboxamide]	51.1%
C[C@@H]1CN2C(=O)CCN(C(=O)NCc3cccc4ccccc34)C2CN(CC2CCCCC2)C1=O (stereo partly drawn) [ID-03, (7R)-9-(cyclohexylmethyl)-7-methyl-N-(naphthalen-1-ylmethyl)-4,8-dioxooctahydropyrimido[1,2-a][1,4]diazepine-1(2H)-carboxamide]	53.4%
O=C1[C@H](Cc2ccc(O)cc2)CN2C(=O)c3sccc3N(C(=O)NCC3CCCCC3)C2CN1Cc1cccc2cccnc12 (stereo partly drawn) [ID-30, (8R)—N-(cyclohexylmethyl)-8-(4-hydroxybenzyl)-7,11-dioxo-6-(quinolin-8-ylmethyl)-4a,5,6,7,8,9-hexahydrothieno[3′,2′:4,5]pyrimido[1,2-a][1,4]diazepine-4(11H)-carboxamide]	61.2%
O=C1[C@H](Cc2ccc(O)cc2)CN2C(=O)CCN(C(=O)NCCC(c3ccccc3)c3ccccc3)C2CN1CCc1ccccc1 (stereo partly drawn) [ID-11, (7R)—N-(3,3-diphenylpropyl)-7-(4-hydroxybenzyl)-4,8-dioxo-9-phenethyloctahydropyrimido[1,2-a][1,4]diazepine-1(2H)-carboxamide]	64.1%
CC(C)COC(=O)N1c2ccsc2C(=O)N2C[C@@H](Cc3ccc(O)cc3)C(=O)N(Cc3cccc4ccccc34)CC21 (stereo partly drawn) [ID-38, isobutyl (8R)-8-(4-hydroxybenzyl)-6-(naphthalen-1-ylmethyl)-7,11-dioxo-4a,5,6,7,8,9-hexahydrothieno[3′,2′:4,5]pyrimido[1,2-a][1,4]diazepine-4(11H)-carboxylate]	52.4%
CC(C)C[C@@H]1CN2C(=O)CCN(C(=O)NCCC(c3ccccc3)c3ccccc3)C2CN(CCc2ccccc2)C1=O (stereo partly drawn) [ID-10, (7R)—N-(3,3-diphenylpropyl)-7-isobutyl-4,8-dioxo-9-phenethyloctahydropyrimido[1,2-a][1,4]diazepine-1(2H)-carboxamide]	50.3%
O=C1[C@H](Cc2ccccc2)CN2C(=O)CCN(C(=O)NCCC(c3ccccc3)c3ccccc3)C2CN1CC1CCCCC1 (stereo partly drawn) [ID-07, (7R)-7-benzyl-9-(cyclohexylmethyl)-N-(3,3-diphenylpropyl)-4,8-dioxooctahydropyrimido[1,2-a][1,4]diazepine-1(2H)-carboxamide]	54.7%
O=C1[C@H](Cc2ccc(O)cc2)CN2C(=O)c3sccc3N(C(=O)NCc3cccc4ccccc34)C2CN1CC1CCCCC1 (stereo partly drawn) [ID-27, (8R)-6-(cyclohexylmethyl)-8-(4-hydroxybenzyl)-N-(naphthalen-1-ylmethyl)-7,11-dioxo-4a,5,6,7,8,9-hexahydrothieno[3′,2′:4,5]pyrimido[1,2-a][1,4]diazepine-4(11H)-carboxamide]	54.4%
CC(C)CCN1CC2N(C[C@@H](Cc3ccccc3)C1=O)C(=O)CCN2C(=O)NCCC(c1ccccc1)c1ccccc1 (stereo partly drawn) [ID-06, (7R)-7-benzyl-N-(3,3-diphenylpropyl)-9-isopentyl-4,8-dioxooctahydropyrimido[1,2-a][1,4]diazepine-1(2H)-carboxamide]	51.8%
